Numbered stars: 1 amine (or outer) side, 2 acyl side, 3 side chain; on linkers, the order of the positions; unused ones are H or OH. Bridge positions count the residues as written; N and C are the ends. Square brackets hold non-standard residues; d marks the D form. Peptide text beside a SMILES is read from it. * marks the point of attachment. hTyr(3S-OH,4S-OH,3'-OSO3H) = N[C@H](C(=O)O)[C@H](O)[C@@H](O)c1ccc(O)c(OS(=O)(=O)O)c1; Orn(4R-OH,5R-OH) = O=C([C@H](C[C@@H](O)[C@@H](O)N[*:3])N[*:1])[*:2]; Pro(3S-OH,4S-Me) = C[C@H]1CN[C@H](C(=O)O)[C@H]1O; X1 = CCCCCOc1ccc(-c2cc(-c3ccc(C(=O)*)cc3)no2)cc1; Gln(3R-OH) = NC(=O)C[C@@H](O)[C@H](N)C(=O)O; Hyp = O=C(O)[C@@H]1C[C@@H](O)CN1
Experiments:
C. albicans [1] = assay: Agar diffusion: zone of growth inhibition around PM-cement discs impregnated with antifungal; format: cell-based; conditions: for duration of activity / inhibitory activity compared with voriconazole: PM cement discs; for duration of activity: days of incubation; for inhibitory activity compared with voriconazole: in words; for time up to which anti-candida activity was detected: cement discs, post-incubation
Protocol: The echinocandin antifungal micafungin or the triazole voriconazole were mixed with polymethylmethacrylate and a bone cement was formed using the mixture. C. albicans was grown overnight in T-soy broth, washed in buffer, then 1000 C. albicans yeast cells were added to the agar surface of a medium containing RPMI, MOPS, and 2% glucose, which was prepared by adding the latter to autoclaved agar after the agar had cooled for 15 min. Cement discs containing micafungin (100 mg) or voriconazole (400 mg) were prepared as described below. Each cement-antifungal disc was placed on the agar culture medium containing the organism.
The antifungal-cement mix (Smartset HV®, bone cement, DePuy (Warsaw, Ind.)) was prepared as follows under sterile conditions: the polymethylmethacrylate (PM) cement powder (part 1) was first mixed thoroughly with each drug and, then 18.88 g of bone cement liquid (part 2) was added to the mixture. Discs of cement-drug were prepared quickly before the cement hardened. Each cement disc (14 mm) was then placed in the center of inoculated agar cultures in 60 mm petri dishes. The plates were then incubated at 30° C. and zones of inhibition were measured every 24 hrs until activity was not observed (usually 6 days). The same discs were removed daily and placed on fresh agar medium that was inoculated similarly.
At 24 hrs, cement discs containing the antifungal micafungin were about 2.5-fold greater in activity that voriconazole. Further, the activity of micafungin was still detected at 120 hrs post-incubation, while no activity was detected after 24 hrs with voriconazole. Data were plotted as mm growth inhibition versus days of incubation (Table 1). The plates were digitally photographed using image processing software.

C. albicans [2] = assay: Growth inhibition by PM-cement or hydroxyapatite (HA) infiltrated with micafungin or anidulafungin (FIG. 2); format: cell-based, Candida albicans
Protocol: FIG. 2 is a graph showing comparisons of micafungin (MIC) and anidulafungin (ANA) infiltrated in hydrozyapatite (HA) or polymethylmethacrylate (PM)-cement and their inhibitory activity against C. albicans.
Both PM-cement and hydroxyapatite (HA) infiltrated with either micafungin or anidulafungin were evaluated. […] The results again indicated the superiority of micafungin (especially the longevity or diffusion of the drug) regardless of whether the drug was infiltrated in HA or PM cement.

SMILES	duration of activity (C. albicans [1])	inhibitory activity compared with voriconazole (C. albicans [1])	inhibitory activity compared with voriconazole (C. albicans [1]; listed as Micafungin)	activity of cement discs relative to voriconazole discs (C. albicans [1]; at 24 hrs, micafungin 100 mg vs voriconazole 400 mg discs)	time up to which anti-candida activity was detected (C. albicans [1])	in vitro anti-Candida albicans activity, comparison (C. albicans [2]; HA or PM cement, in words)	persistence of activity (C. albicans [2]; drug infiltrated in HA or PM cement)	duration of activity (C. albicans [1]; listed as voriconzole)
CCCCCOc1ccc(-c2cc(-c3ccc(C(=O)N[C@H]4C[C@@H](O)[C@@H](O)NC(=O)[C@@H]5[C@@H](O)[C@@H](C)CN5C(=O)[C@H]([C@H](O)CC(N)=O)NC(=O)[C@H]([C@H](O)[C@@H](O)c5ccc(O)c(OS(=O)(=O)O)c5)NC(=O)[C@@H]5C[C@@H](O)CN5C(=O)[C@H]([C@@H](C)O)NC4=O)cc3)no2)cc1 [micafungin] (X1-[Orn(4R-OH,5R-OH)]T[Hyp][hTyr(3S-OH,4S-OH,3'-OSO3H)][Gln(3R-OH)][Pro(3S-OH,4S-Me)]; lactam 1-C)	≥ 6 days	much greater	superior and longer lasting	about 2.5 fold	≥ 120 h	significantly greater than that of voriconazole and anidulafungin	6 to 7 days	
C[C@@H](c1ncncc1F)[C@](O)(Cn1cncn1)c1ccc(F)cc1F [voriconazole]	1 days				≤ 24 h			≤ 1 days

Source: patent publication US20110071072A1, “Antifungal Bone Cements” (Georgetown University, A Congressionally Chartered …, priority 2009, published 2011)
